Reference: paper PMC9582717 (The Journal of Biological Chemistry, 2022)

Target: T1, SmChiP (chitoporin) (Serratia marcescens, UniProt I7GPX7)
T1 sequence (I7GPX7 28-467): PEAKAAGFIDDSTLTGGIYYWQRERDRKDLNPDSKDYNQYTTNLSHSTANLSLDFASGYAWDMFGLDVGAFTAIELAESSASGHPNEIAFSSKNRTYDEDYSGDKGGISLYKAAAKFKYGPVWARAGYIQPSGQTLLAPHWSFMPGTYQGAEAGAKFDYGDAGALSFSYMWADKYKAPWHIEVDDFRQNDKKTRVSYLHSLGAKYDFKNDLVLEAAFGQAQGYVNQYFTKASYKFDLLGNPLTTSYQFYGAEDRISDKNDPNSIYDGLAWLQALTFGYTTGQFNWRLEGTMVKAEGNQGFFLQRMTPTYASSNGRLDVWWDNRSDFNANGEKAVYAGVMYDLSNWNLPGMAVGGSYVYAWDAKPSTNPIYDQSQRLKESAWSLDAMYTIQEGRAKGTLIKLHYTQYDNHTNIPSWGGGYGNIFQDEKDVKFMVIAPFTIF
Experiment: isothermal titration calorimetry
Details: detergent-solubilized protein; one-site binding model

Row | Structure (SMILES) | Kd [µM]
1 | CC(=O)N[C@H]1[C@H](O[C@H]2[C@H](O)[C@@H](NC(C)=O)[C@H](O[C@H]3[C@H](O)[C@@H](NC(C)=O)C(O)O[C@@H]3CO)O[C@@H]2CO)O[C@H](CO)[C@@H](O[C@@H]2O[C@H](CO)[C@@H](O[C@@H]3O[C@H](CO)[C@@H](O[C@@H]4O[C@H](CO)[C@@H](O)[C@H](O)[C@H]4NC(C)=O)[C@H](O)[C@H]3NC(C)=O)[C@H](O)[C@H]2NC(C)=O)[C@@H]1O (some centres unmarked) [chitohexaose] | 17 ± 0.6
2 | CC(=O)N[C@H]1[C@H](O[C@H]2[C@H](O)[C@@H](NC(C)=O)[C@H](O[C@H]3[C@H](O)[C@@H](NC(C)=O)C(O)O[C@@H]3CO)O[C@@H]2CO)O[C@H](CO)[C@@H](O[C@@H]2O[C@H](CO)[C@@H](O[C@@H]3O[C@H](CO)[C@@H](O)[C@H](O)[C@H]3NC(C)=O)[C@H](O)[C@H]2NC(C)=O)[C@@H]1O (some centres unmarked) [chitopentaose] | 23 ± 2
